What is called IC50 is the concentration that inhibits the measured activity by half. One may read the inhibition as the relative decrease from the control value, in per cent.

The target of assay [1] is T1, Mushroom tyrosinase (mTyr) (Agaricus bisporus, UniProt C7FF04).
T1 construct: purchased Sigma Chemical Co. T3824-50KU
The experiment in a line: Mushroom tyrosinase inhibition, L-tyrosine substrate (monophenolase). Type of assay: biochemical. The note with it: for inhibition at 100 µM: read-out: Mushroom Tyrosinase L-Tyrosine 100 µM inhibition (%).
Target sequence in this assay (C7FF04 1-392): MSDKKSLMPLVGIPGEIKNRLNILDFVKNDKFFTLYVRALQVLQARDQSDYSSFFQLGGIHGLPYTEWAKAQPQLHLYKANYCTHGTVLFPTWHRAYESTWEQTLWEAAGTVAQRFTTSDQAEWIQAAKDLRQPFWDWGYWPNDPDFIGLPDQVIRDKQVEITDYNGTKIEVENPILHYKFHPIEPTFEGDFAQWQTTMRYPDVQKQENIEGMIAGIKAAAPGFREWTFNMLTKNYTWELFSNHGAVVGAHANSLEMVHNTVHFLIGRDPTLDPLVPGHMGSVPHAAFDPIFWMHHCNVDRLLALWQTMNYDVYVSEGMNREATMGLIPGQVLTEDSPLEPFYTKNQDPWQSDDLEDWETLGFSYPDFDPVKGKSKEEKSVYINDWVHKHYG

The target in assay [2] is T2, mushroom tyrosinase (Agaricus bisporus, UniProt C7FF04).
T2 construct: purchased Sigma Chemical Co. T3824-50KU
Description: Affinity-based ultrafiltration UPLC-QTOF-MS binding experiment. Conditions: for after tyrosinase (area): UPLC-QTOF-MS peak area in 1000 ppm extract after incubation with mTyr; for Relative metabolite intensity upon treatment with mTyr: extract treated with mTyr, 15 min preincubation. How it is done: (§1) Affinity-based ultrafiltration was performed as previously described by Zuo et al. and Wang et al.[15]^,[19]^,[23]. First, […] of 0.25 M phosphate buffer (pH 6.8) with 10% glycerol was added to 13 μL of mushroom tyrosinase (144 U in the same phosphate buffer solution) and 100 μL of 1000 mg/mL extract (the test solution was consistently 3.3%). The final concentration of the extract was adjusted to 1000 ppm. The mixture was incubated for 15 or 50 min at 37 °C on a plate shaker. Then, the sample was centrifuged at 13,000 rpm for 20 min, and the supernatant was collected for analysis. The supernatant solution was filtered through a membrane (PTFE 0.2 μm, hydrophobic, Advantec, Japan), and 2 μL of each solution was injected for UPLC-PDA-QTOF-MS analysis.
(§2) The compounds from the P. rotundum var. subintegrum extract were analysed by UPLC-PDA-ESI-QTOF-MS. […] MS was performed in negative ion mode ([M − H]^−). N2 was used as the desolvation gas, the desolvation temperature was set to 350 °C at a flow rate of 400 L/h with a source temperature of 100 °C. The capillary and cone voltages were set to 2300 and 50 V, respectively. The data for each sample were collected with a scan time of 0.25 s and a 0.01 s interscan delay. Exact MS, MS/MS, and elemental analysis were confirmed using MassLynx software incorporated into the Waters instrument.

Assay [3] relates to mushroom tyrosinase. The description is as above. The note with it: UPLC-QTOF-MS peak area in 1000 ppm extract, not exposed to enzyme. As for the experimental part:
as §1, §2

Assay [4] has as its target T1, Mushroom tyrosinase (mTyr). The experiment in a line: Mushroom tyrosinase inhibition, L-DOPA substrate (diphenolase). Type of assay: biochemical.
Target sequence in this assay (C7FF04 1-392 limits assumed): as the sequence (C7FF04 1-392) above
Where [5] appears, read: mTyr, L-tyrosine substrate (monophenolase), read-out: Mushroom Tyrosinase L-Tyrosine IC50.
[6] abbreviates: mTyr, L-DOPA substrate, read-out: Mushroom Tyrosinase L-DOPA IC50.

Some results are limits rather than exact numbers.

T2 sequence (C7FF04 1-392): as above

Turning to `O=C(OC1C2CC3OCC(O)(C1Cl)C2C(OC1OC(CO)C(O)C(O)C1O)O3)c1ccc(O)c(O)c1` (stereo not drawn) [Piscroside C (6), Piscroside C], the half-inhibitory concentration (IC50) in assay [1] (setting [5]) and in assay [4] (setting [6]) was more than 200 µM in each case. The inhibition at 100 µM in assay [1] stood at 6.7%. The “after tyrosinase (area)” value in assay [2] was 22171 area. In assay [3], the “Control (area)” value is 44999 area.

`COc1ccc(C(=O)OC2C3C=COC(OC4OC(CO)C(O)C(O)C4O)C3C3(CO)OC23)cc1OC` (stereo not drawn) [6-O-Veratroyl catalpol (9), 6-O-Veratroyl catalpol]: the IC50 in assay [1] (setting [5]) and in assay [4] (setting [6]) was more than 200 µM each time. Further, in assay [1], the inhibition at 100 µM was 6.1%. In addition, the “after tyrosinase (area)” value in assay [2] is reported as 11932 area. Besides, the “Control (area)” value in assay [3] was found to be 15756 area.

Consider `COc1ccc(/C=C/C(=O)O[C@H]2[C@@H]3C=CO[C@@H](O[C@@H]4O[C@H](CO)[C@@H](O)[C@H](O)[C@H]4O)[C@@H]3[C@@]3(CO)O[C@@H]23)cc1O` [Minecoside (8), Minecoside], for which the IC50 in assay [1] (setting [5]) is 132 ± 8.3 µM; in assay [4] (setting [6]), more than 200 µM. For the same compound, the inhibition at 100 µM in assay [1] worked out at 41.7%. The “after tyrosinase (area)” value in assay [2] is on record as 465 area. For the same compound, in assay [3], the “Control (area)” value was determined as 976 area.

For the compound `O=C(/C=C/c1ccc(O)c(O)c1)O[C@@H]1C2C=CO[C@H](O[C@@H]3O[C@H](CO)[C@@H](O)[C@H](O)[C@H]3O)C2[C@]2(CO)O[C@H]12` (stereo partly drawn) [Verminoside (4), Verminoside], the IC50 in assay [1] (setting [5]) was more than 200 µM. Further, the inhibition at 100 µM in assay [1] stood at 8.9%. In addition, in assay [2], the “after tyrosinase (area)” value is reported as 2886 area and the “Relative metabolite intensity upon treatment with mTyr” value is “significantly reduced”. The “Control (area)” value in assay [3] came to 16481 area. Moreover, the 50% inhibitory concentration (IC50) in assay [4] (setting [6]) is more than 200 µM.

Consider `O=C(O[C@H]1[C@@H]2C=CO[C@@H](O[C@@H]3O[C@H](CO)[C@@H](O)[C@H](O)[C@H]3O)[C@@H]2[C@@]2(CO)O[C@@H]12)c1ccc(O)cc1` [Catalposide (3), Catalposide], for which the IC50 in assay [1] (setting [5]) and in assay [4] (setting [6]) was more than 200 µM throughout. Further, the inhibition at 100 µM in assay [1] turned out to be 9.9%. The “after tyrosinase (area)” value in assay [2] was determined as 21250 area. The “Control (area)” value in assay [3] was 26121 area.

For the compound `O=C(OC1C2C=COC(OC3OC(CO)C(O)C(O)C3O)C2C(O)(CO)C1Cl)c1ccc(O)c(O)c1` (stereo not drawn) [Longifolioside A (2), Longifolioside A], the concentration for half-maximal inhibition (IC50) in assay [1] (setting [5]) was 193 ± 10.5 µM. For the same compound, in assay [1], the inhibition at 100 µM was 36%. In assay [2], the “after tyrosinase (area)” value is listed as 3852 area and the “Relative metabolite intensity upon treatment with mTyr” value is “significantly reduced”. Also, the “Control (area)” value in assay [3] was 10677 area. Besides, the IC50 in assay [4] (setting [6]) was more than 200 µM.

Take `COc1cc(C(=O)O[C@H]2[C@@H]3C=CO[C@@H](O[C@@H]4O[C@H](CO)[C@@H](O)[C@H](O)[C@H]4O)[C@@H]3[C@@]3(CO)O[C@@H]23)ccc1O` [Picroside II (5), Picroside II]: the IC50 in assay [1] and in assay [4] was more than 200 µM each time. Further, in assay [1], the inhibition at 100 µM was 5.3%. For the same compound, the “after tyrosinase (area)” value in assay [2] is 12194 area. The “Control (area)” value in assay [3] was found to be 17798 area.

On to `COc1ccc(C(=O)OC2C3C=COC(OC4OC(CO)C(O)C(O)C4O)C3C3(CO)OC23)cc1O` (stereo not drawn) [Isovanillyl catapol (7), Isovanillyl catapol], for which the concentration for half-maximal inhibition (IC50) in assay [1] (setting [5]) and in assay [4] (setting [6]) was more than 200 µM each time. Besides, the inhibition at 100 µM in assay [1] was 10.1%. For the same compound, the “after tyrosinase (area)” value in assay [2] was 8093 area. In addition, the “Control (area)” value in assay [3] was 12844 area.
